{
  "source": "ChEMBL document CHEMBL1159350",
  "about": "“Hemolytic steroid disulfates from the far eastern starfish Pteraster pulvillus” (J Nat Prod, 2003)",
  "data": [
    {"test": "Toxicity in mouse erythrocytes assessed as hemolytic activity", "type": "cell-based, Erythrocyte", "units": {"HC50": "µM"}, "values": [
      {"smiles": "CC(C)CCC[C@@H](COS(=O)(=O)O)[C@H]1CC[C@H]2[C@@H]3CC=C4C[C@H](OS(=O)(=O)O)CC[C@]4(C)[C@H]3CC[C@]12C.NCCc1ccc(O)cc1", "HC50": 33},
      {"smiles": "CC(C)CCC[C@@H](COS(=O)(=O)O)[C@H]1CC[C@H]2[C@@H]3CC[C@H]4[C@@H](O)[C@H](OS(=O)(=O)O)CC[C@]4(C)[C@H]3CC[C@]12C", "HC50": 45},
      {"smiles": "CC(C)CCC[C@@H](COS(=O)(=O)O)[C@H]1CC[C@H]2[C@@H]3CC[C@H]4C[C@H](OS(=O)(=O)O)CC[C@]4(C)[C@H]3CC[C@]12C", "HC50": 10},
      {"smiles": "CC(C)CCC[C@@H](COS(=O)(=O)O)[C@H]1CC[C@H]2[C@@H]3CC=C4[C@@H](O)[C@H](OS(=O)(=O)O)CC[C@]4(C)[C@H]3CC[C@]12C", "HC50": 80},
      {"smiles": "CC(C)CCC[C@@H](COS(=O)(=O)O)[C@H]1CC[C@H]2[C@@H]3CC[C@H]4C[C@H](OS(=O)(=O)O)CC[C@]4(C)[C@H]3CC[C@]12C.NCCc1ccc(O)cc1.NCCc1ccc(O)cc1", "HC50": 18}
    ]}
  ]
}
